Experimental data reported in patent publication US9206206B2, “Oxidized lipid compounds and uses thereof” (Vascular Biogenics Ltd., priority 2008, dated 2015).
“And” between values parts separate entries of the source, which are not always exact repeats. Equal entries are not always repeated. Where two headings read alike, the source gives them in different places.

How the values were obtained:
[1] = test system: IL12/23 p40; assay: In vitro IL12/23p40 production assay; format: cell-based, mouse; conditions: bone marrow-derived cells
Experimental: In Vitro IL12/23p40 Production Assay:
Bone marrow derived cells (BMDCs) were obtained from the femur and tibia of female C57BL mice, cultured, and seeded at a concentration of 10^6 cells/ml 5-6 days post-culturing, as described hereinabove for the tyrosine phosphorylation assay.
The tested compound was then added to the cells for 1 hour at a concentration of 1, 2.5, 5, 10 or 20 μg/ml. The cells were activated for IL12/23p40 production by incubation for 24 hours with 10 μg/ml peptidoglycan (PGN). Cytokine production from the supernatant was measured by ELISA. Activated cells without the tested compound were used as the control.

[2] = test system: tyrosine phosphorylation in primary macrophages; assay: Tyrosine phosphorylation assay in primary macrophages (Western blot); format: cell-based, mouse
Experimental: (§1) Tyrosine Phosphorylation Assay: Tyrosine phosphorylation in macrophages or bone marrow-derived cells (BMDCs) of mice was assayed. Mouse primary macrophages were isolated from the peritoneum of 7-8 week old C57BL/6 female mice following thioglycollate stimulation. […] Mouse primary bone marrow-derived cells were isolated by flushing bone marrow out of the femur and tibia of female SJL mice using cold RPMI-1640. […] Cells were then washed, resuspended in the same buffer and depleted of B and T cells on a Midi-Macs separation unit through a LD or LS column (Miltenyi Biotech). […] The medium was replaced every other day. […] Proteins with phosphorylated tyrosine were then observed by Western blot, using a monoclonal anti-phosphotyrosine antibody. Western blotting for ERK1/2 or α-tubulin was performed as a control for protein loading.

[3] = test system: mouse peritoneal macrophages; assay: In vitro toxicity assay; format: cell-based; conditions: for LD50: crystal violet cell number
Experimental: Thioglycollate-elicited mouse peritoneal macrophages were washed, counted and seeded (2×10^5 to 3×10^5 cells per well in 24-well plates) in triplicate wells in medium containing RPMI-1640, L-glutamine, 10% FBS and antibiotics (penicillin/streptomycin). After a recovery period of 24 hours, the tested compound (or controls) was added to the cell medium at doses of 2, 10, 20, 50, 100 or 150 μg/ml, keeping the added volume equal in all treatments by complementing the volume with solvent.
Following addition of the compounds, the cells were incubated for an additional 24 hours, after which the cells were washed, fixed with a solution of 10% methanol/10% acetic acid and stained with crystal violet (0.4% in 20% ethanol). Cell numbers were measured by determining optical density at 595 nm. Cells incubated with vehicle (PBS with 1% ethanol) were used as a control, to which cell numbers in treated samples were normalized.
Data are presented as mean±standard deviation. Statistical significance relative to vehicle-treated cells was calculated using a student's t-test, with p-values of less than 0.05 being considered as indicating statistical significance.

[4] = test system: tyrosine phosphorylation in bone marrow-derived cells; assay: Tyrosine phosphorylation assay in bone marrow-derived cells (Western blot); format: cell-based, mouse
Experimental: as §1

[5] = compound 1, 2.5, 5, 10 or 20 μg/ml for 1 hour, then 10 μg/ml peptidoglycan 24 hours, ELISA
[6] = peritoneal macrophages, 24 hours
[7] = peritoneal macrophages, 24 hours, up to 150 μg/ml
[8] = peritoneal macrophages, 24 hours, only one of two experiments
[9] = peritoneal macrophages, 24 hours, doses 2-150 μg/ml

With CCCCCCCCCCCCOCC(COP(=O)([O-])OCC[N+](C)(C)C)OCCCCC(=O)O (centres unmarked) [CI-209, 1-dodecyl-2-(4-carboxy)butyl-glycero-3-phosphocholine] the “production of IL12/23 p40” value [1, 5] was “inhibited production of IL12/23 p40 by bone marrow-derived cells in a dose-dependent manner”, the phosphotyrosine levels ([2]; 20 μg/ml, 10 minutes) was “induced an increase in phosphotyrosine levels” and the LD50 [3, 6] was “above 150 μg/ml and > 286 μM”. For the same compound, the “toxicity within the range of tested doses” value (shortened to “toxicity within the range”) [3, 7] was “toxicity of CI-209 was not observed at any of the tested doses”.
In the case of CCCCCCCCCCCCCCCCOCC(COP(=O)([O-])OCC[N+](C)(C)C)OCCCCC(OCC)OCC (centres unmarked) [diEtAc, 1-hexadecyl-2-(5′,5′-diethoxypentyl)-glycero-3-phosphocholine], the “dose at which (significant) toxicity was detected” value ([3]; mouse, 24 h) is reported as no less than 20 µg/mL and the “dose at which toxicity was detected in only one experiment” value (shortened to “dose at which toxicity was detected”) ([3]; mouse, 24 h) is reported as 10 µg/mL.
With CCCCCCCCCCCCCCCCOCC(COP(=O)(O)O)OCCCCC(=O)O (centres unmarked) [CI-201-PA, 1-hexadecyl-2-(4-carboxy)butyl-glycero-3-phosphate] the “dose at which (significant) toxicity was detected” value ([3]; mouse, 24 h) was no less than 20 µg/mL, the “dose at which toxicity was detected” value ([3]; mouse, 24 h) was 10 µg/mL and the LD50 [3, 6] was “approximately 50 μg/ml”.
For C[N+](C)(C)CCOP(=O)([O-])OCC(COCCCCCCCCCCCCCCCC(=O)O)OCCCCC(=O)O (centres unmarked) [CI-213, 1-(15′-carboxy)pentadecyl-2-(4-carboxy)butyl-glycero-3-phosphocholine], the “dose at which a significant decrease in cell number was detected in only one experiment” value ([3]; peritoneal macrophages, 24 hours, only one experiment) was 163.5 µM, the “dose at which toxicity was detected” value [3, 8] was 100 µg/mL and the “toxicity within the range” value [3, 7] was “did not clearly exhibit significant toxicity within the range of tested doses”.
In the case of CCCCCCCCCCCCCCCCOCC(COP(=O)(O)OCCN)OCCCC(=O)O (centres unmarked) [CI-206, 1-hexadecyl-2-(3-carboxy)propyl-glycero-3-phosphoethanolamine], the phosphotyrosine levels ([2]; 20 μg/ml, 10 minutes) is reported as “causes reduction in phosphotyrosine levels” and the “dose at which (significant) toxicity was detected” value ([3]; mouse, 24 h) is reported as no less than 50 µg/mL.
In the case of CCCCCCCCCCCCCCCCSCC(COP(=O)(O)OCCN)OCCCCC(=O)O (centres unmarked) [1-S-CI-202, 1-S-hexadecyl-2-(4-carboxy)butyl-glycero-3-phosphoethanolamine], the phosphotyrosine levels ([2]; 10 μg/ml, 10 minutes) is reported as “caused an increase in phosphotyrosine levels” and the phosphotyrosine levels ([2]; 20 μg/ml, 10 minutes) is reported as “caused a reduction in phosphotyrosine levels”.
With “1-(2-octyl)dodecyl-2-(4-carboxy)butyl-glycero-3-phosphocholine [VB-221]” the phosphotyrosine levels ([2]; 5 ng/ml (8 μM)) was “induction of tyrosine phosphorylation”, the phosphotyrosine levels ([2]; 10 ng/ml (16 μM)) was “induction of tyrosine phosphorylation” and the phosphotyrosine levels ([2]; 20 ng/ml) was “induction of tyrosine phosphorylation”.
In the case of CCCCCCCCCCCCCCCCOCC(COP(=O)(O)OCCNC(=O)CCCC(=O)O)OCCCCC(=O)O (centres unmarked) [CI-210, 1-hexadecyl-2-(4-carboxy)butyl-glycero-3-phosphoethanolamine-N-glutaric acid], the “production of IL12/23 p40” value [1, 5] is reported as “inhibited production of IL12/23 p40 by bone marrow-derived cells in a dose-dependent manner”, the phosphotyrosine levels ([2]; 20 μg/ml, 10 minutes) is reported as “induced an increase in phosphotyrosine levels” and the “dose at which (significant) toxicity was detected” value ([3]; mouse, 24 h) is reported as no less than 100 µg/mL. For the same compound, the “dose at which significant toxicity was observed” value ([3]; mouse, 24 h) was no less than 156.6 µM and the LD50 [3, 6] was “approximately 150 μg/ml and ~235 μM”.
With CCCCCCCCCCCCCCCCCCOCC(COP(=O)(O)OCCN)OCCCCC(=O)O (centres unmarked) [CI-216, 1-octadecyl-2-(4-carboxy)butyl-glycero-3-phosphoethanolamine] the “production of IL12/23 p40” value ([1]; 20 μg/ml) was “inhibited production of IL12/23 p40 by bone marrow-derived cells”, the phosphotyrosine levels ([2]; 10 μg/ml, 10 minutes) was “induction of tyrosine phosphorylation” and the phosphotyrosine levels ([2]; 20 μg/ml, 10 minutes) was “reduction in phosphotyrosine levels”.
For CCCCCCCCCCCCCCCCOCC(COP(=O)([O-])OCC[N+](C)(C)C)OCCCCCCC(=O)O (centres unmarked) [CI-203, 1-Hexadecyl-2-(6-carboxy)hexanyl-glycero-3-phosphocholine], the “production of IL12/23 p40” value [1, 5] was “inhibited production of IL12/23 p40 by bone marrow-derived cells in a dose-dependent manner”, the phosphotyrosine levels ([4]; 1 μg/ml (1.7 μM)) was “no apparent effect” and the “dose at which (significant) toxicity was detected” value [3, 9] was 100 µg/mL.
With CCCCCCCCCCCCCCCCCCCCOCC(COP(=O)(O)OCCN)OCCCCC(=O)O (centres unmarked) [CI-220, 1-eicosanyl-2-(4-carboxy)butyl-glycero-3-phosphoethanolamine] the phosphotyrosine levels ([2]; 10 μg/ml, 10 minutes) was “little effect, if any” and the phosphotyrosine levels ([2]; 20 μg/ml, 10 minutes) was “caused a reduction in phosphotyrosine levels”.
With CCCCCCCCCCCCCCCCOCC(COP(=O)([O-])OCC[N+](C)(C)C)OCCC(=O)O (centres unmarked) [CI-217, 1-Hexadecyl-2-(2-carboxy)ethyl-glycero-3-phosphocholine] the phosphotyrosine levels ([2]; 10 μg/ml, 10 minutes) was “little effect” and the phosphotyrosine levels ([2]; 20 μg/ml, 10 minutes) was “caused a reduction in phosphotyrosine levels”.
With CCCCCCCCCCCCCCCCOC[C@H](COP(=O)([O-])OCC[N+](C)(C)C)OCCCCCCC(=O)O [(R)-CI-203, (R)-1-hexadecyl-2-(6-carboxy)hexanyl-sn-glycero-3-phosphocholine] the phosphotyrosine levels ([4]; 20 μg/ml (33 μM)) was “caused a reduction in phosphotyrosine levels”.
For CCCCCCCCCCCCCCCCOCC(COP(=O)(O)OCC(N)C(=O)O)OCCCCC(=O)O (centres unmarked) [VB-223, 1-hexadecyl-2-(4-carboxy)butyl-glycero-3-phosphoserine], the phosphotyrosine levels ([2]; 1 μg/ml, 10 minutes) was “perhaps also”, the phosphotyrosine levels ([2]; 5 μg/ml, 10 minutes) was “induction of tyrosine phosphorylation” and the phosphotyrosine levels ([2]; 10 μg/ml, 10 minutes) was “induction of tyrosine phosphorylation”. For the same compound, the phosphotyrosine levels ([2]; 20 μg/ml, 10 minutes) was “induction of tyrosine phosphorylation”.
With CCCCCCCCCCCCCCCCCCCCOCC(COP(=O)([O-])OCC[N+](C)(C)C)OCCCCC(=O)O (centres unmarked) [CI-219, 1-eicosanyl-2-(4-carboxy)butyl-glycero-3-phosphocholine] the phosphotyrosine levels ([2]; 10 μg/ml, 10 minutes) was “little effect, if any” and the phosphotyrosine levels ([2]; 20 μg/ml, 10 minutes) was “caused a reduction in phosphotyrosine levels”.
For CCCCCCCCCCCCCCCCOCC(COP(=O)([O-])OCC[N+](C)(C)C)OCCCCC(=O)OC (centres unmarked) [CI-208, 1-hexadecyl-2-(4-methylcarboxy)butyl-glycero-3-phosphocholine], the phosphotyrosine levels ([2]; 20 ng/ml) was “causes a reduction in phosphotyrosine levels, which is stronger than the reduction caused by treatment with 20 ng/ml of the CI-201 control” and the “dose at which toxicity was detected” value ([3]; mouse, 24 h) was 20 µg/mL.
With CCCCCCCCCCCCCCCCCCOCC(COP(=O)([O-])OCC[N+](C)(C)C)OCCCCC(=O)O (centres unmarked) [CI-215, 1-octadecyl-2-(4-carboxy)butyl-glycero-3-phosphocholine] the phosphotyrosine levels ([2]; 10 μg/ml, 10 minutes) was “induced an increase in phosphotyrosine levels” and the phosphotyrosine levels ([2]; 20 μg/ml, 10 minutes) was “caused a decrease in phosphotyrosine levels”.
CCCCCCCCCCCCCCCCOCC(COP(=O)([O-])OCC[N+](C)(C)C)OCCCCCCC(=O)O (racemic) [racemic CI-203, 1-hexadecyl-2-(6-carboxy)hexanyl-glycero-3-phosphocholine] was tested, and the phosphotyrosine levels ([4]; 20 μg/ml (33 μM)) was “caused a reduction in phosphotyrosine levels”.
In the case of “1-(2-octyl)dodecyl-2-(4-carboxy)butyl-glycero-3-phosphoethanolamine [VB-222]”, the phosphotyrosine levels ([2]; 10 μg/ml, 10 minutes) is reported as “induction of tyrosine phosphorylation” and the phosphotyrosine levels ([2]; 20 μg/ml, 10 minutes) is reported as “induction of tyrosine phosphorylation”.
CCCCCCCCCCCCCCCCOCC(COP(=O)([O-])OCC[N+](C)(C)C)OCCCC(=O)O (centres unmarked) [CI-205, 1-hexadecyl-2-(3-carboxy)propyl-glycero-3-phosphocholine] was tested, and the phosphotyrosine levels ([2]; 20 μg/ml, 10 minutes) was “causes reduction in phosphotyrosine levels”, the “dose at which (significant) toxicity was detected” value [3, 9] was 100 µg/mL and the “dose at which toxicity was detected” value [3, 8] was 20 to 50 µg/mL.
With CCCCCCCCCCCCCCCCSCC(COP(=O)([O-])OCC[N+](C)(C)C)OCCCCC(=O)O (centres unmarked) [1-S-CI-201, 1-S-hexadecyl-2-(4-carboxy)butyl-glycero-3-phosphocholine] the phosphotyrosine levels ([2]; 10 μg/ml, 10 minutes) was “little effect, if any” and the phosphotyrosine levels ([2]; 20 μg/ml, 10 minutes) was “caused a reduction in phosphotyrosine levels”.
For NCCOP(=O)(O)OCC(COCCCCCCCCCCCCCCCC(=O)O)OCCCCC(=O)O (centres unmarked) [CI-214, 1-(15′-carboxy)pentadecyl-2-(4-carboxy)butyl-glycero-3-phosphoethanolamine], the “toxicity within the range” value [3] was “did not clearly exhibit significant toxicity within the range of tested doses”, the “dose at which a significant decrease in cell number was detected in only one experiment” value ([3]; mouse, 24 h) was 175.5 µM and the “dose at which toxicity was detected” value ([3]; mouse, 24 h) was 100 µg/mL.
